Values after ≈ are worked out from the molar mass of the structure shown.
System: Rattus norvegicus
Experiment: Antiinflammatory activity against collagen-induced arthritis in Lewis rat assessed as reduction of paw swelling at 3 mg/kg, po qd for 7 days relative to control
Type: functional
Parameters: scale not given: the % may be the effect or the level left

SMILES | Activity
Cc1cccc(C)c1-n1c(=O)c2cnc(Nc3ccc(N4CCN(C)CC4)cc3)nc2n2c3ccccc3nc12 | 49%

System: Rattus norvegicus
Experiment: Antiinflammatory activity against collagen-induced arthritis in Lewis rat assessed as reduction of paw swelling at 10 mg/kg, po qd for 7 days relative to control
Type: functional
Parameters: scale not given: the % may be the effect or the level left

SMILES | Activity
Cc1cccc(C)c1-n1c(=O)c2cnc(Nc3ccc(N4CCN(C)CC4)cc3)nc2n2c3ccccc3nc12 | 95%

System: Rattus norvegicus
Experiment: Antiinflammatory activity against collagen-induced arthritis in po dosed Lewis rat assessed as reduction of paw swelling
Type: functional

SMILES | ED50
Cc1cccc(C)c1-n1c(=O)c2cnc(Nc3ccc(N4CCN(C)CC4)cc3)nc2n2c3ccccc3nc12 | 3.2 mg/kg

Molecular target: Mitogen-activated protein kinase 14 (Homo sapiens, UniProt Q16539)
Experiment: Inhibition of p38-alpha by HTRF assay

SMILES | IC50
Cc1cccc(C)c1-n1c(=O)c2cnc(Nc3ccc(N4CCN(C)CC4)cc3)nc2n2c3ccccc3nc12 | > 10000 nM

Molecular target: Vascular endothelial growth factor receptor 2 (Homo sapiens, UniProt P35968)
Experiment: Inhibition of KDR by HTRF assay

Sequence of Vascular endothelial growth factor receptor 2 (P35968 whole entry): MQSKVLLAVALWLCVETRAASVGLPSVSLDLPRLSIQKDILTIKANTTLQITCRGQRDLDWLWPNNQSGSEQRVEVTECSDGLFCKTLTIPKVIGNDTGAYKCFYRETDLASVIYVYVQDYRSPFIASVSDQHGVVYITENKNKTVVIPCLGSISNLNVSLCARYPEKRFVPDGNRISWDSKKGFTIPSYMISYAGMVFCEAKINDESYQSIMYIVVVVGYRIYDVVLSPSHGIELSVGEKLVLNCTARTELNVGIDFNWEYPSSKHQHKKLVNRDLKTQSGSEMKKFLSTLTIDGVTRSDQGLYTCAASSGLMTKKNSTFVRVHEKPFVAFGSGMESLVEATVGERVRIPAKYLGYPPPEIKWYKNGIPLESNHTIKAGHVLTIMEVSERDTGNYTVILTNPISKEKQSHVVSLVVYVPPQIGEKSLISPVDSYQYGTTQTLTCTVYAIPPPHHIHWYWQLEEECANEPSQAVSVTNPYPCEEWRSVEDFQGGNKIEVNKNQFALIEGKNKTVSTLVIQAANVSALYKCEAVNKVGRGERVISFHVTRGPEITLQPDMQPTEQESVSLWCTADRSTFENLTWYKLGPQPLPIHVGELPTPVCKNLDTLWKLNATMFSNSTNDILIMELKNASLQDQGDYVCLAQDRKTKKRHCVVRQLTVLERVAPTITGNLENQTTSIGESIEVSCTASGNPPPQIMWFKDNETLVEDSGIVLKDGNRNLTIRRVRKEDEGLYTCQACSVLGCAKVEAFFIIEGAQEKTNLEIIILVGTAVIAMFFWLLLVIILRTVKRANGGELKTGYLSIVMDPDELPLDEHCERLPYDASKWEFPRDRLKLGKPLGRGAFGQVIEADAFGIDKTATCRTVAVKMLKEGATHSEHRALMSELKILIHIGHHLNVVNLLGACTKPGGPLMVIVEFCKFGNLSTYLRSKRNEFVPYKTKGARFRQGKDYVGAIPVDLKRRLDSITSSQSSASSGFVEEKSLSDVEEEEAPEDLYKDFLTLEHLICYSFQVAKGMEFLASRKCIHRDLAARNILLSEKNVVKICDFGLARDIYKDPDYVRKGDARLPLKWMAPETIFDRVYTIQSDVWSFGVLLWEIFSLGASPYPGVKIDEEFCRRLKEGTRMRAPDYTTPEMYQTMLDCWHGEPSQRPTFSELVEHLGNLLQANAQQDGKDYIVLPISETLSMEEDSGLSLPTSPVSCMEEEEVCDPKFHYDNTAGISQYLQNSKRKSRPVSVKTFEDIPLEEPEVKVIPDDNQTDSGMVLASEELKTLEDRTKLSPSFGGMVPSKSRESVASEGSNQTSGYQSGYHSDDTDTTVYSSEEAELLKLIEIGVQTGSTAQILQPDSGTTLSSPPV

SMILES | IC50
Cc1cccc(C)c1-n1c(=O)c2cnc(Nc3ccc(N4CCN(C)CC4)cc3)nc2n2c3ccccc3nc12 | 5100 nM

System: T-cell
Experiment: Inhibition of anti-CD3/CD28-induced IL2 production in human T cells
Type: functional, cell-based

SMILES | IC50
Cc1cccc(C)c1-n1c(=O)c2cnc(Nc3ccc(N4CCN(C)CC4)cc3)nc2n2c3ccccc3nc12 | 460 nM

System: Lymphocyte
Experiment: Inhibition of T cell activation in human peripheral blood lymphocytes by mixed lymphocyte reaction
Type: functional, cell-based

SMILES | IC50
Cc1cccc(C)c1-n1c(=O)c2cnc(Nc3ccc(N4CCN(C)CC4)cc3)nc2n2c3ccccc3nc12 | 47 nM

System: not listed separately
Experiment: Solubility in simulated intestinal fluid at pH 6.8
Type: physicochemical

SMILES | solubility
Cc1cccc(C)c1-n1c(=O)c2cnc(Nc3ccc(N4CCN(C)CC4)cc3)nc2n2c3ccccc3nc12 | 153 µg/mL (≈ 288 µM)

Molecular target: Tyrosine-protein kinase Lyn (Homo sapiens, UniProt P07948)
Experiment: Inhibition of Lyn by HTRF assay

SMILES | IC50
Cc1cccc(C)c1-n1c(=O)c2cnc(Nc3ccc(N4CCN(C)CC4)cc3)nc2n2c3ccccc3nc12 | 21 nM

Molecular target: Tyrosine-protein kinase SYK (Homo sapiens, UniProt P43405)
Experiment: Inhibition of Syk by HTRF assay

SMILES | IC50
Cc1cccc(C)c1-n1c(=O)c2cnc(Nc3ccc(N4CCN(C)CC4)cc3)nc2n2c3ccccc3nc12 | 200 nM

Molecular target: Tyrosine-protein kinase ZAP-70 (Homo sapiens, UniProt P43403)
Experiment: Inhibition of ZAP-70 by HTRF assay

Sequence of Tyrosine-protein kinase ZAP-70 (P43403 whole entry): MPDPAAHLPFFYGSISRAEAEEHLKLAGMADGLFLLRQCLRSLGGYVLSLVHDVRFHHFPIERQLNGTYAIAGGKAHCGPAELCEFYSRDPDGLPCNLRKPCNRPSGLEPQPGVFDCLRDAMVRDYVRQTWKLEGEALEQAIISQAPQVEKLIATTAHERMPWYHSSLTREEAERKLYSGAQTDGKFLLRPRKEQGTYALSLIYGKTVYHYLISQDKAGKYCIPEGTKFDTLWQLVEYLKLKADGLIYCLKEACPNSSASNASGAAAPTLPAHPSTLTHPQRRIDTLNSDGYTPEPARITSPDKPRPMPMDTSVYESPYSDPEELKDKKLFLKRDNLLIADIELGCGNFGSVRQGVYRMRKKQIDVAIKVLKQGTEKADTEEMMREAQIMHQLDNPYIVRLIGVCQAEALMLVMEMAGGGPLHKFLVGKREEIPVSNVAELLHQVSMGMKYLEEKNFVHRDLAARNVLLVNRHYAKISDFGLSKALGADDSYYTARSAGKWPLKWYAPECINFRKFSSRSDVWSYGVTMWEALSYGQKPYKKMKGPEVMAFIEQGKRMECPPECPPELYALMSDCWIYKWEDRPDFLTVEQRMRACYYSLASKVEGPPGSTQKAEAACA

SMILES | IC50
Cc1cccc(C)c1-n1c(=O)c2cnc(Nc3ccc(N4CCN(C)CC4)cc3)nc2n2c3ccccc3nc12 | 1500 nM

Molecular target: Tyrosine-protein kinase JAK3 (Homo sapiens, UniProt P52333)
Experiment: Inhibition of JAK3 by HTRF assay

Sequence of Tyrosine-protein kinase JAK3 (P52333 whole entry): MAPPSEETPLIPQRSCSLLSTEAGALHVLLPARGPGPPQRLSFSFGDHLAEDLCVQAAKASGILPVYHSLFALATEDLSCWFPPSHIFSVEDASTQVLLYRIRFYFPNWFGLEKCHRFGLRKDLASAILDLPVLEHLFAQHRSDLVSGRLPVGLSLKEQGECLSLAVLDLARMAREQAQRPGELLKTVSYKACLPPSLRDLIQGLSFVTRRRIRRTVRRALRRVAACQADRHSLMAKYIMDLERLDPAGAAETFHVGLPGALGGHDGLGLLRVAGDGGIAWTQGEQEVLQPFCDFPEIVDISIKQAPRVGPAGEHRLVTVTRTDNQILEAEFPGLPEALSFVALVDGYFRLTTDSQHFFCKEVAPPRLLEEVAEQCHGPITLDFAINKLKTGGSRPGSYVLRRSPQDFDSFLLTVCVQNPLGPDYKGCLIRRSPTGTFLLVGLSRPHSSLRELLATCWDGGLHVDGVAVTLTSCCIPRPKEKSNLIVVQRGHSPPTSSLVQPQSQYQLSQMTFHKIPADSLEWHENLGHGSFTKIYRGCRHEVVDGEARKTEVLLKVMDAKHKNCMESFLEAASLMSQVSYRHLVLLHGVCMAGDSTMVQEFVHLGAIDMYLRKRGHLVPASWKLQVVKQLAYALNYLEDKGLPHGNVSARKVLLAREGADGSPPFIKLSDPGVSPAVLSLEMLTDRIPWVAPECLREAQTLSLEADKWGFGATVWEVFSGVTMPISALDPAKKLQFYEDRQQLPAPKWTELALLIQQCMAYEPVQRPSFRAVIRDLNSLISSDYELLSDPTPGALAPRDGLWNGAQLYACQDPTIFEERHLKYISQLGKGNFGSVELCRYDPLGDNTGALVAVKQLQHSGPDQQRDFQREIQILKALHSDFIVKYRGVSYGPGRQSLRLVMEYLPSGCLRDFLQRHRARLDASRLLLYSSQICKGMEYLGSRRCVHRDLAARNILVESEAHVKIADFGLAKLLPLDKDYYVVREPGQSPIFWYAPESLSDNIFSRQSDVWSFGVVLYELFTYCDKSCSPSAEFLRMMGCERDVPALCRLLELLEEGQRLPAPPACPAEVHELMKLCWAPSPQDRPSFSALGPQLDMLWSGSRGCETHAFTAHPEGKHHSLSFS

SMILES | IC50
Cc1cccc(C)c1-n1c(=O)c2cnc(Nc3ccc(N4CCN(C)CC4)cc3)nc2n2c3ccccc3nc12 | 150 nM

Molecular target: Tyrosine-protein kinase ITK/TSK (Homo sapiens, UniProt Q08881)
Experiment: Inhibition of Itk by HTRF assay

SMILES | IC50
Cc1cccc(C)c1-n1c(=O)c2cnc(Nc3ccc(N4CCN(C)CC4)cc3)nc2n2c3ccccc3nc12 | > 20000 nM

Molecular target: Tyrosine-protein kinase BTK (Homo sapiens, UniProt Q06187)
Experiment: Inhibition of Btk by HTRF assay

SMILES | IC50
Cc1cccc(C)c1-n1c(=O)c2cnc(Nc3ccc(N4CCN(C)CC4)cc3)nc2n2c3ccccc3nc12 | 410 nM

Molecular target: Angiopoietin-1 receptor (Homo sapiens, UniProt Q02763)
Experiment: Inhibition of Tie-2 by HTRF assay

SMILES | IC50
Cc1cccc(C)c1-n1c(=O)c2cnc(Nc3ccc(N4CCN(C)CC4)cc3)nc2n2c3ccccc3nc12 | 750 nM

Molecular target: Mast/stem cell growth factor receptor Kit (Homo sapiens, UniProt P10721)
Experiment: Inhibition of c-Kit by HTRF assay

Sequence of Mast/stem cell growth factor receptor Kit (P10721 whole entry): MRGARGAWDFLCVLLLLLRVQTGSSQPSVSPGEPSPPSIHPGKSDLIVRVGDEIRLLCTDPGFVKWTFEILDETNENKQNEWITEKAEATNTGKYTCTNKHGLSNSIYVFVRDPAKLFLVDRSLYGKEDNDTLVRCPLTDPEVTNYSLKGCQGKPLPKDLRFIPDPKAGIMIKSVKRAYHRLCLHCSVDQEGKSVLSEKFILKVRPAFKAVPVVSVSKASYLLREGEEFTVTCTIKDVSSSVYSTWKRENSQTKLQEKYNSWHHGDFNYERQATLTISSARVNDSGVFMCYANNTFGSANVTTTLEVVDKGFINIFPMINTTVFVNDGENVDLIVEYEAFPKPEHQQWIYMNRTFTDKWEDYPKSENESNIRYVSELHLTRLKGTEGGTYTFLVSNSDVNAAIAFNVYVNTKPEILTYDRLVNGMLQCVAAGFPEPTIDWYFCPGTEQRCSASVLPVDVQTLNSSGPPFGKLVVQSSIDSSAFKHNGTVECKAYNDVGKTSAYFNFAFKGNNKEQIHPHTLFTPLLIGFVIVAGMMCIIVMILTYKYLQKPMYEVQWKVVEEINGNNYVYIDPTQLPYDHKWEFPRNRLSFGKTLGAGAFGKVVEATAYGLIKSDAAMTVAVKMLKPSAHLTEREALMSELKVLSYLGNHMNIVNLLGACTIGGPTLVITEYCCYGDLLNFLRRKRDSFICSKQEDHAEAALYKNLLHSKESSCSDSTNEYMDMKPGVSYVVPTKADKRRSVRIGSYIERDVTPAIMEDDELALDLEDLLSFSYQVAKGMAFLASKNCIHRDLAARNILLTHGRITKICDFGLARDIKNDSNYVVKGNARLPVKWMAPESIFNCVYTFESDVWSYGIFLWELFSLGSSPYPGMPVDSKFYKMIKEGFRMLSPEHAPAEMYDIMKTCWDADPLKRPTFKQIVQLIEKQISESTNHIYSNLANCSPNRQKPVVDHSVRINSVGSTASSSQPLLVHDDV

SMILES | IC50
Cc1cccc(C)c1-n1c(=O)c2cnc(Nc3ccc(N4CCN(C)CC4)cc3)nc2n2c3ccccc3nc12 | 560 nM

Molecular target: Serine/threonine-protein kinase B-raf (Homo sapiens, UniProt P15056)
Experiment: Inhibition of b-Raf by HTRF assay

SMILES | IC50
Cc1cccc(C)c1-n1c(=O)c2cnc(Nc3ccc(N4CCN(C)CC4)cc3)nc2n2c3ccccc3nc12 | 540 nM

Molecular target: Mitogen-activated protein kinase 9 (Homo sapiens, UniProt P45984)
Experiment: Inhibition of JNK2 by HTRF assay

SMILES | IC50
Cc1cccc(C)c1-n1c(=O)c2cnc(Nc3ccc(N4CCN(C)CC4)cc3)nc2n2c3ccccc3nc12 | > 40000 nM

Molecular target: Mitogen-activated protein kinase 10 (Homo sapiens, UniProt P53779)
Experiment: Inhibition of JNK3 by HTRF assay

SMILES | IC50
Cc1cccc(C)c1-n1c(=O)c2cnc(Nc3ccc(N4CCN(C)CC4)cc3)nc2n2c3ccccc3nc12 | 7300 nM

Molecular target: Mitogen-activated protein kinase 3 (Homo sapiens, UniProt P27361)
Experiment: Inhibition of Erk1 by HTRF assay

SMILES | IC50
Cc1cccc(C)c1-n1c(=O)c2cnc(Nc3ccc(N4CCN(C)CC4)cc3)nc2n2c3ccccc3nc12 | > 100000 nM

Molecular target: Ribosomal protein S6 kinase alpha-5 (Homo sapiens, UniProt O75582)
Experiment: Inhibition of MSK1 by HTRF assay

Sequence of Ribosomal protein S6 kinase alpha-5 (O75582 whole entry): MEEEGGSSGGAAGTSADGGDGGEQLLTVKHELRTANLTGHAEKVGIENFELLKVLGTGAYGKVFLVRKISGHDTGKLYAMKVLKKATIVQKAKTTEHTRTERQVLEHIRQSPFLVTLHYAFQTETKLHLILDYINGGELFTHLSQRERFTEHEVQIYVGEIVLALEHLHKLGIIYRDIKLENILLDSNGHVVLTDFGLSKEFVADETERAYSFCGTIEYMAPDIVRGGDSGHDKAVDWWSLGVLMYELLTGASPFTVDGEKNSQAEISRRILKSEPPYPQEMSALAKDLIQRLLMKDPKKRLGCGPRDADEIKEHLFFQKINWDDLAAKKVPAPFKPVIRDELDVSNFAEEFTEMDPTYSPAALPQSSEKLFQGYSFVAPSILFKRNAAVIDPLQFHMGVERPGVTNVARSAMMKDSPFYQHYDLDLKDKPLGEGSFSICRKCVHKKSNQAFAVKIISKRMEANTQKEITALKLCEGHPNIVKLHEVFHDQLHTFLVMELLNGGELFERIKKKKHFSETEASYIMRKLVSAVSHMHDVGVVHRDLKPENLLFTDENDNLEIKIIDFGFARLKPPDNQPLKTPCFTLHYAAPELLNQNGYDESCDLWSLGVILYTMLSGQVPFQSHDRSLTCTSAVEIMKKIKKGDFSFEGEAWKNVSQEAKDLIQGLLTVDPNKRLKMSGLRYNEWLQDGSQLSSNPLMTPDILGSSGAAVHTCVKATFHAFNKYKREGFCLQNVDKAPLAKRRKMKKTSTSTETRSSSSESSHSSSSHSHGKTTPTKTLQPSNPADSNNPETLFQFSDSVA

SMILES | IC50
Cc1cccc(C)c1-n1c(=O)c2cnc(Nc3ccc(N4CCN(C)CC4)cc3)nc2n2c3ccccc3nc12 | > 100000 nM

System: not listed separately
Experiment: Inhibition of anti-CD3/CD28-induced human T cell proliferation

SMILES | IC50
Cc1cccc(C)c1-n1c(=O)c2cnc(Nc3ccc(N4CCN(C)CC4)cc3)nc2n2c3ccccc3nc12 | 530 nM

System: T-cell
Experiment: Inhibition of anti-CD3/CD28-induced IL2 secretion in human T cells stimulated with phorbol myristic acid and calcium ionophore

SMILES | IC50
Cc1cccc(C)c1-n1c(=O)c2cnc(Nc3ccc(N4CCN(C)CC4)cc3)nc2n2c3ccccc3nc12 | 5800 nM
